SMILES strings stand for the structures. Counter-ions that a name gives are not always drawn. Some results are limits rather than exact numbers.

The assay deals with T1, Lp-PLA2 from plasma (pooled human plasma) (Homo sapiens, UniProt Q13093).
T1 construct: from tissue; host or cells: pooled human plasma
T1 sequence (Q13093 22-441): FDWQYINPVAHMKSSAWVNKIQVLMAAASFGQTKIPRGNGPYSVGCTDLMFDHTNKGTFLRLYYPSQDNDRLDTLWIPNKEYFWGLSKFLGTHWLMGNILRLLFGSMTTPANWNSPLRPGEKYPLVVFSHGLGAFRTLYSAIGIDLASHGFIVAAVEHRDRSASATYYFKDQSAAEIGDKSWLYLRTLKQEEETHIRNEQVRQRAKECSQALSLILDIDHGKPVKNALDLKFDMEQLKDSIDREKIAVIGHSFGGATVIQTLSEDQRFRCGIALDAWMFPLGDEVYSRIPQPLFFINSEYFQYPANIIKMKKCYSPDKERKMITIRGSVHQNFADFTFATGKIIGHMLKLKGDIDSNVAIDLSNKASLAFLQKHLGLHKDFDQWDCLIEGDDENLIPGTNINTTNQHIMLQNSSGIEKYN
As to the kind of experiment: Lp-PLA2 human plasma assay (Thio-PAF assay). The class given is biochemical. The conditions noted are these: read-out: pIC50 in the thio-PAF assay (converted). The text has this: (3) Lipoprotein-Associated Phospholipase A2 (Lp-PLA2) Human Plasma Assay (Also Referred to as “Thio-PAF Assay”)
The human plasma assay utilizes a thioester analog of PAF (phosphatidylcholine), where hydrolysis yields to the formation of a phospholipid containing a free thiol group. The amount of thiol is quantitated continuously by reacting with CPM (7-diethylamino-3-(4′-maleimidylphenyl)-4-methylcoumarin), a maleimide which increases in fluorescence after Michael addition of thiols. This assay may detect the activity of Lp-PLA2 from plasma, as determined by specific inhibition by Lp-PLA2 inhibitors.
The thio-PAF assay was run as a quenched 15 μL assay. Compounds source plate was prepared by making 1:3 (by volume) serial dilution of the compounds into pure DMSO on 384-well microplate. 0.01 μL of compounds on compound source plate were transferred to 384 well Greiner 784076 (black) low-volume plates by ECHO liquid dispenser. 8 μL pooled human plasma, which was previously aliquoted and frozen, was added. Plates were centrifuged for 10 sec at 500 rpm. After 30 minutes preincubation, 2 μL of substrate (2.5 mM thio-PAF, 3.2 mM NEM (N-ethylmaleimide) [made fresh daily in DMSO], and 32 μM CPM [from a DMSO stock] in assay buffer of 50 mM HEPES, pH7.4, 150 mM NaCl, 1 mM CHAPS was added to 384 well Greiner 784076 (black) low-volume plates by BRAVO liquid handling station. Plates were centrifuged for 10 sec at 500 rpm. Plate was covered to protect from light and incubated for 2 min at room temperature. Reaction was quenched with 5 μL of 5% aqueous trifluoroacetic acid (TFA). Plates were covered to protect from light and incubated for 40 min at room temperature. Plates were read at ex: 380/em: 485 using-Envision microplate reader. PIC50 data, curve and QC analysis was conducted by using XLFit module in Excel.
All exemplified compounds of the present invention were tested in thio-PAF assay or similar assay as described above.
As to `O=c1nc(OCCc2ccc(Oc3ccc(Cl)c(C(F)(F)F)c3)cc2)[nH]cc1Cc1c(O)cc(F)cc1F` [E19, 2-{[2-(4-{[4-Chloro-3-(trifluoromethyl)phenyl]oxy}phenyl)ethyl]oxy}-5-[(2,4-difluoro-6-hydroxyphenyl)methyl]-4(1H)-pyrimidinone], the IC50 was more than 10 µM.
The value for `CCc1c[nH]c(OCCc2ccc(Oc3ccc(Cl)c(C(F)(F)F)c3)cc2)nc1=O` [E27, 2-{[2-(4-{[4-Chloro-3-(trifluoromethyl)phenyl]oxy}phenyl)ethyl]oxy}-5-ethyl-4(1H)-pyrimidinone] was more than 10 µM; that for `O=c1nc(CCc2ccc(Oc3ccc(F)cc3)cc2)[nH]cc1Cc1cncnc1` [E39, 2-(4-(4-fluorophenoxy)phenethyl)-5-(pyrimidin-5-ylmethyl)pyrimidin-4(1H)-one] was more than 10 µM; that for `Cn1cc(Cc2c[nH]c(CCc3ccc(Oc4cccc(C(F)(F)F)c4)cc3)nc2=O)cn1` [E50, 5-((1-methyl-1H-pyrazol-4-yl)methyl)-2-(4-(3-(trifluoromethyl)phenoxy)phenethyl)pyrimidin-4(1H)-one] was more than 10 µM.
The value for `COc1ncc(Cc2c[nH]c(SCc3ccc(Oc4ccc(F)cc4)cc3)nc2=O)cn1` [E52, 2-((4-(4-fluorophenoxy)benzyl)thio)-5-((2-methoxypyrimidin-5-yl)methyl)pyrimidin-4(1H)-one] was more than 10 µM.
In the case of `N#Cc1ccc(Cc2c[nH]c(SCc3ccc(Oc4ccc(Cl)c(C(F)(F)F)c4)cc3)nc2=O)cc1` [E62, 4-[(2-{[(4-{[4-chloro-3-(trifluoromethyl)phenyl]oxy}phenyl)methyl]thio}-4-oxo-1,4-dihydro-5-pyrimidinyl)methyl]benzonitrile], the IC50 is more than 10 µM.
On to `CCc1c[nH]c(SCc2ccc(Oc3ccc(Cl)c(C(F)(F)F)c3)cc2)nc1=O` [E63, 2-{[(4-{[4-chloro-3-(trifluoromethyl)phenyl]oxy}phenyl)methyl]thio}-5-ethyl-4(1H)-pyrimidinone], for which the IC50 was more than 10 µM.
As for `Cn1cc(Cc2c[nH]c(SCc3ccc(Oc4ccc(Cl)c(C(F)(F)F)c4)c(C#N)c3)nc2=O)c2ccccc21` [E81, 2-(4-chloro-3-(trifluoromethyl)phenoxy)-5-(((5-((1-methyl-1H-indol-3-yl)methyl)-4-oxo-1,4-dihydropyrimidin-2-yl)thio)methyl)benzonitrile], the IC50 was more than 10 µM.
Consider `CCc1c[nH]c(SCc2ccc(Oc3ccc(Cl)c(C(F)(F)F)c3)c(C#N)c2)nc1=O` [E83, 2-{[4-chloro-3-(trifluoromethyl)phenyl]oxy}-5-{[(5-ethyl-4-oxo-1,4-dihydro-2-pyrimidinyl)thio]methyl}benzonitrile], for which the IC50 was more than 10 µM.
The value for `COc1ncc(Cc2c[nH]c(SCc3ccc(Oc4ccc(F)c(C(F)(F)F)c4)c(C#N)c3)nc2=O)cn1` [E89, 2-{[4-fluoro-3-(trifluoromethyl)phenyl]oxy}-5-{[(5-{[2-(methyloxy)-5-pyrimidinyl]methyl}-4-oxo-1,4-dihydro-2-pyrimidinyl)thio]methyl}benzonitrile] was more than 10 µM; that for `CCc1c[nH]c(SCc2ccc(Oc3cccc(C(F)(F)F)c3)c(C#N)c2)nc1=O` [E98, 5-{[(5-ethyl-4-oxo-1,4-dihydro-2-pyrimidinyl)thio]methyl}-2-{[3-(trifluoromethyl)phenyl]oxy}benzonitrile] was more than 10 µM.
On to `N#Cc1ccc(Cc2c[nH]c(SCCc3ccc(Oc4ccc(Cl)c(C(F)(F)F)c4)cc3)nc2=O)cc1` [E114, 4-[(2-{[2-(4-{[4-chloro-3-(trifluoromethyl)phenyl]oxy}phenyl)ethyl]thio}-4-oxo-1,4-dihydro-5-pyrimidinyl)methyl]benzonitrile], for which the IC50 is more than 10 µM.
The value for `CCc1c[nH]c(OCCc2cc(F)c(Oc3ccc(Cl)c(C(F)(F)F)c3)c(F)c2)nc1=O` [E125, 2-{[2-(4-{[4-chloro-3-(trifluoromethyl)phenyl]oxy}-3,5-difluorophenyl)ethyl]oxy}-5-ethyl-4(1H)-pyrimidinone] was more than 10 µM; that for `O=C(O)Cc1c[nH]c(OCCc2ccc(Oc3ccc(Cl)c(C(F)(F)F)c3)cc2)nc1=O` [E131, (2-{[2-(4-{[4-chloro-3-(trifluoromethyl)phenyl]oxy}phenyl)ethyl]oxy}-4-oxo-1,4-dihydro-5-pyrimidinyl)acetic acid] was more than 10 µM; that for `CCc1c[nH]c(OCCc2ccc(Oc3ccc(C(F)(F)F)nc3)cc2)nc1=O` [E140, 5-ethyl-2-{[2-(4-{[6-(trifluoromethyl)-3-pyridinyl]oxy}phenyl)ethyl]oxy}-4(1H)-pyrimidinone] was more than 10 µM.
The value for `CCc1cn(C)c(OCCc2ccc(Oc3ccc(C(F)(F)F)nc3)cc2)nc1=O` [E142, 5-ethyl-1-methyl-2-{[2-(4-{[6-(trifluoromethyl)-3-pyridinyl]oxy}phenyl)ethyl]oxy}-4(1H)-pyrimidinone] was more than 10 µM; that for `CCc1cn(C)c(OCCc2ccc(Oc3cnc(C(F)(F)F)nc3)cc2)nc1=O` [E144, 5-ethyl-1-methyl-2-(4-((2-(trifluoromethyl)pyrimidin-5-yl)oxy)phenethoxy)pyrimidin-4(1H)-one, trifluoroacetic acid salt] was more than 10 µM; that for `COc1ncc(Cc2c[nH]c(OCCc3ccc(Oc4ncc(Cl)cn4)cc3)nc2=O)cn1` [E145, 2-(4-((5-chloropyrimidin-2-yl)oxy)phenethoxy)-5-((2-methoxypyrimidin-5-yl)methyl)pyrimidin-4(1H)-one, Trifluoroacetic acid salt] was more than 10 µM.
With `Cc1cccc(Oc2ccc(CCOc3nc(=O)c(Cc4cnn(C)c4)c[nH]3)cc2)n1` [E158, 5-[(1-methyl-1H-pyrazol-4-yl)methyl]-2-[(2-{4-[(6-methyl-2-pyridinyl)oxy]phenyl}ethyl)oxy]-4(1H)-pyrimidinone], the IC50 is more than 10 µM.
Consider `CCc1c[nH]c(OCCc2ccc(Oc3cccc(C)n3)cc2)nc1=O` [E160, 5-ethyl-2-[(2-{4-[(6-methyl-2-pyridinyl)oxy]phenyl}ethyl)oxy]-4(1H)-pyrimidinone], for which the IC50 is more than 10 µM.
Consider `CCc1c[nH]c(OCCc2ccc(Oc3cc(Cl)cc(C(F)(F)F)c3)cc2)nc1=O` [E163, 2-{[2-(4-{[3-chloro-5-(trifluoromethyl)phenyl]oxy}phenyl)ethyl]oxy}-5-ethyl-4(1H)-pyrimidinone], for which the IC50 is more than 10 µM.
`CCc1c[nH]c(OCCc2cc(F)c(Oc3cnc(C(F)(F)F)nc3)c(F)c2)nc1=O` [E170, 2-(3,5-difluoro-4-((2-(trifluoromethyl)pyrimidin-5-yl)oxy)phenethoxy)-5-ethylpyrimidin-4(1H)-one]: the IC50 is more than 10 µM.
Take `CCc1cn(C)c(OCCc2cc(F)c(Oc3cnc(C(F)(F)F)nc3)c(F)c2)nc1=O` [E171, 2-(3,5-difluoro-4-((2-(trifluoromethyl)pyrimidin-5-yl)oxy)phenethoxy)-5-ethyl-1-methylpyrimidin-4(1H)-one]: the IC50 is more than 10 µM.
Turning to `CCc1c[nH]c(OCCc2ccc(Oc3ccc(Cl)c(C(F)(F)F)c3)c(F)c2)nc1=O` [E173, 2-{[2-(4-{[4-chloro-3-(trifluoromethyl)phenyl]oxy}-3-fluorophenyl)ethyl]oxy}-5-ethyl-4(1H)-pyrimidinone], the IC50 was more than 10 µM.
Turning to `CCc1c[nH]c(OCCc2ccc(Oc3ccc(Cl)c(OC(F)(F)F)c3)cc2)nc1=O` [E179], the IC50 is more than 10 µM.
In the case of `CCc1c[nH]c(OCCc2ccc(Oc3ccc(Cl)c(C)c3)cc2)nc1=O` [E183, 2-[(2-{4-[(4-chloro-3-methylphenyl)oxy]phenyl}ethyl)oxy]-5-ethyl-4(1H)-pyrimidinone], the IC50 is more than 10 µM.
As to `CCc1cn(C)c(OCCc2ccc(Oc3ccc(Cl)c(C)c3)cc2)nc1=O` [E184, 2-[(2-{4-[(4-chloro-3-methylphenyl)oxy]phenyl}ethyl)oxy]-5-ethyl-1-methyl-4(1H)-pyrimidinone], the IC50 is more than 10 µM.
For `CN(CCc1ccc(Oc2ccc(F)cc2)cc1)c1nc(=O)c(Cc2cncnc2)c[nH]1` [E192, 2-{2-[4-(4-fluoro-phenoxy)phenyl]-ethyl-methyl-amino}-5-pyrimidin-5-ylmethyl-1H-pyrimidin-4-one], the IC50 was more than 10 µM.
Next, `Cc1c[nH]c(NCCc2ccc(Oc3ccc(Cl)c(C(F)(F)F)c3)cc2)nc1=O` [E198, 2-{2-[4-(4-Chloro-3-trifluoromethyl-phenoxy)-phenyl]-ethylamino}-5-methyl-1H-pyrimidin-4-one]: more than 10 µM.

The values above are taken from patent US9174968B2, “Pyrimidinone compounds for use in the treatment of diseases or conditions mediated by LP-PLA2” (GLAXO GROUP LIMITED, priority 2010, dated 2015).
